“Also recorded” adds a separate entry of the source. Where two headings read alike, the source gives them in different places.
Legend:
[1] = tested on: murine endothelial cells exposed to Gamma-Interferon and TNF (nitric oxide production); experiment: Inhibition of nitrite production by MBEC exposed to IFN (100 U/ml) and TNF (500 U/ml); format: cell-based; details: for IC50: Mus musculus, Endothelial cell
Protocol: Endothelial cells--MBEC's were isolated from murine brain microvessels and cultured on gelatin-coated tissue culture dishes in DME/F12 media supplemented with 2% PPPHS, 5% FBS (Hyolone), 50 μg/ml ECGF (Biomed Tech), and 10 U/ml heparin (Sigma) as previously described (Belloni et al. 1989). The endothelial derivation of MBEC's was determined by the presence of a non-thrombogenic surface to platelets and immunofluorescent staining for Factor VIII related antigen. MBEC's were used between passage 6-9 for all experiments.
Nitrite Assay--MBE cells were cultured on gelatin-coated well plates (Corning) in 100 μl of culture medium and treated with cytokines at 3 days post-confluence. After 48 hours, nitrite production was determined by a colorimetric assay. […] All treatments were performed in triplicate and data presented as the mean value±standard deviation. […]
production by murine endothelial cells exposed to GammaInterferon (100
U/ml) and TNF (500 U/ml) in vitro.

[2] = tested on: guinea pig pulmonary artery rings; experiment: Relaxation of preconstricted guinea pig pulmonary artery rings
rabbit aortic rings = experiment: ACh-induced relaxation of isolated rabbit aortic rings; details: for effect on ACh-induced vasorelaxation: NE-preconstricted rabbit aorta, FIG. 11
From the text: FIG. 9b compares concentration-response relationships for the same set of mono- and disubstituted arginine analogs as FIG. 9a, plus an additional dimethyl analog with the two methyl groups on different guanidino nitrogens. The test is for inhibition of ACh-induced vasorelaxation in isolated rabbit aortic rings. The points plotted represent means±S.E. of the maximum responses to ACh observed in the presence of the indicated concentrations of analogs (n=4).
Guinea pig pulmonary artery (GP PA), rat and rabbit aorta (Ao), and dog coronary (CA) and femoral artery (FA) were precontracted with NE (1 μM) and relaxed with a single concentration of ACh. Concentration of ACh: GP PA 1 μM, rat Ao […], rabbit Ao 0.3, dog CA […] and […] 0.1 μM. […] The concentrations of L-citrulline (L-cit), D-arginine (D-arg) and L-arginine (L-arg) were all 0.5 mM. Bars are mean values±SEM (n=4-6).
(§1) FIG. 11 contains representative physiograph tracings which depict ACh-induced relaxation of NE-preconstricted rings prepared from rabbit aorta (upper panel) and human internal mammary artery (lower panel).

[3] = tested on: human internal mammary artery; experiment: ACh-induced relaxation of human internal mammary artery; details: for effect on ACh-induced vasorelaxation: NE-preconstricted, FIG. 11
From the text: as §1

[4] = tested on: isolated guinea pig heart; experiment: Histamine-induced nitrite release and coronary flow in isolated perfused guinea pig heart; details: for effect on coronary flow (vasodilation): histamine-elicited; for effect on EDRF/NO (nitrite) release: histamine-induced, FIG. 13
Protocol: Histamine was administered as a rapid bolus injection into the aorta and net nitrite release during the subsequent 2.5 minutes was determined.

endotoxin-treated dogs = format: in vivo, dog; parameters: blood pressure after L-arginine / change in SAP after L-arginine: dose or concentration left out as unconfirmed; details: for Cardiac Output / Heart Rate / Systemic Arterial Pressure / Systemic Vascular Resistance: Table 1, Study 1: Endotoxin-treated (n = 4)
Protocol: (§2) Animals: Studies were carried out on 12 conditioned mongrel dogs (9 males and 3 females) weighing 22-32 kg (avg=25.3 kg). Animal care was in accordance with the recommendations of the American Association for Accreditation of Laboratory Animal Care, and met all standards prescribed by the Guide for the Care and Use of Laboratory Animals (Guide for the Care and Use of Laboratory Animals (1978) Dept. of Health, Education and Welfare, Washington, D.C. (Publ. No. 78-23). Animal protocols were approved by The University of Texas Animal Welfare Committee. The dogs were fasted overnight prior to the day of experimentation. They were anesthetized with sodium pentobarbital (25 mg/kg I.v.). Dogs were then endotracheally intubated and ventilated with a piston-driven respirator (Harvard instruments) using room air at a tidal volume of 20 ml/kg and at a rate of 10 to 12 breaths per minute, adjusted to achieve a normal arterial pH and pCO2 (Instrumentation Laboratories 1L13012 pH/Blood Gas Analyzer). Catheters were placed percutaneously into the femoral and pulmonary arteries; In the latter, a flow-directed thermal-dilation catheter was used (Abbott Critical Care Systems).
(§3) Physiologic measurements: Mean SAP and heart rate were continuously monitored (Parametron 7048 Monitoring System, Roche) and stored on a magnetic disk using an analog-to-digital converter (Scientific Solutions, Inc.). Cardiac output (CO) was determined as the mean of six measurements by thermal-dilution. Systemic vascular resistance was calculated as (SAP X80)/CO and expressed as […].
(§4) Protocol: After the blood pressure and heart rate stabilized, endotoxin (40 ug/kg, in 10 ml of phosphate-buffered saline (PBS), pH 7.4) was infused i.v. over 2 minutes. This dose of endotoxin typically induces severe and often lethal cardiovascular collapse in the dog. Blood pressure was monitored, and when either SAP fell below 60 mmHg or a stable nadir in systemic arterial pressure (SAP) was maintained for 10 minutes, L-NMA was administered (20 mg/kg in 5 ml of PBS i.v. over 1 min.). In most experiments, L-arginine (400 mg/kg in 20 mi PBS) was administered ten minutes later by i.v. infusion over 2 minutes. In control experiments, dogs without prior exposure to endotoxin received L-NMA alone. To simulate the hypotension observed in dogs receiving endotoxin, one group of dogs received a continuous i.v. infusion of nitroglycerin (2 mg/ml) at a rate adjusted to maintain the SAP at 60-70 mm Hg. Nitroglycerin-treated dogs then received L-NMA (20 mg/kg) and 20 minutes later L-arginine was administered […].

[5] = tested on: nitroglycerin-treated dogs; experiment: Nitroglycerin-induced hypotension in dogs (Example 4); format: in vivo, dog; details: for Cardiac Output / Heart Rate / Systemic Arterial Pressure / Systemic Vascular Resistance: Table 1, Study 2: Nitroglycerin-treated (n = 3)
Protocol: as §2, §3, §4
In an additional series of experiments, blood pressure was reduced to 65 mm Hg by continuous i.v. infusion of nitroglycerin, a hypotensive agent that forms NO by an L-arginine and NO synthetase-independent mechanism.

endotoxemic dogs = experiment: Endotoxin-induced hypotension in dogs (Example 5); format: in vivo, dog
Protocol: Administration of ET to dogs was clearly more toxic and less predictable than TNF administration. […] Within 1.5 minutes the blood pressure increased by 33±2.5 mmHg.

[6] = tested on: vascular EDRF/NO synthesis; details: Sakuma et al., cited from earlier work

N=C(N)NCCC[C@H](N)C(=O)O [L-arginine, reference compound]
reversal of NMMA inhibition of nitrite production ([1]; 8 mM L-arginine vs 1 mM NMMA): completely reversing the effects of 1 mM NMMA | nitrite concentration upon adding L-arginine back to arginine-free medium ([1]; MBEC exposed to TNF and IFN): increased in a dose dependent manner | effect on relaxation in the presence of NMMA ([2]; excess L-arginine): restored relaxation in the presence of NMMA | effect on ACh-induced vasorelaxation (rabbit aortic rings): restores relaxation | effect on ACh-induced vasorelaxation [3]: restores relaxation | effect on coronary flow (vasodilation) [4]: restored | effect on EDRF/NO (nitrite) release [4]: restoration | effect of L-arginine on L-NMA effect (endotoxin-treated dogs; 400 mg/kg L-arginine): reversed the effect of L-NMA and restored the endotoxin-induced hypotension | blood pressure after L-arginine (endotoxin-treated dogs; 2 hours after L-NMA dosing, decline): < 45 mm Hg | blood pressure after L-arginine (endotoxin-treated dogs; FIG. 24, L-arginine): 43 mm Hg | change in SAP after L-arginine (endotoxin-treated dogs; FIG. 24, L-arginine): -77 mm Hg | Cardiac Output (endotoxin-treated dogs): 2.31 ± 0.43 L/min | Heart Rate (endotoxin-treated dogs): 116.7 ± 18.8 beats/min | Systemic Arterial Pressure (endotoxin-treated dogs): 52.7 ± 8.8 mmHg | Systemic Vascular Resistance (endotoxin-treated dogs): 1851 ± 171 dynes-sec/cm^5 | Cardiac Output [5]: 5.15 ± 1.08 L/min | Heart Rate [5]: 148.7 ± 19.9 beats/min | Systemic Arterial Pressure [5]: 56.9 ± 13 mmHg | Systemic Vascular Resistance [5]: 1088.2 ± 491 dynes-sec/cm^5 | effect of L-arginine after NMMA (endotoxemic dogs; L-arginine 100 mg/kg): fall precipitously below the pre-NMMA level | restoration of EDRF/NO synthesis ([6]; excess L-arginine after L-NMA): restored

CNC(=N)NCCC[C@H](N)C(=O)O [NMMA, N^G -methyl-L-arginine]
concentration giving maximal inhibition of nitrite production ([1]; MBEC exposed to TNF and IFN): 1 mM | effect of NMMA on nitrite production ([1]; MBEC exposed to TNF and IFN): inhibited | IC50 ([1]; 48 h, read-out: ED50% (effective dose that inhibited 50% of the nitrite production), murine endothelial cells, Gamma-Interferon (100 U/ml) and TNF (500 U/ml), in vitro): 337 µM | IC50 ([1]; read-out: E.D. 50% for inhibition of nitrite production, MBEC exposed to TNF and IFN): 330 µM | effect on vasodilatation by ACh, LTD4 and HIST ([2]; endothelium-dependent vasodilators): blocks endothelium-dependent relaxation; also recorded: blocks the action of ACh, LTD4 and HIST | inhibition of EDRF/NO synthesis ([2]; guinea pig pulmonary artery rings, 1 μM NE, ACh): served as inhibitors of EDRF/NO synthesis | inhibition of EDRF/NO in vascular preparation ([2]; guinea pig pulmonary artery, NMMA 100 μM): arginine reversible inhibitor of EDRF/NO | effect on vasodilatation by SNP ([2]; sodium nitroprusside, endothelium-independent): does not inhibit | effect on ACh-induced vasorelaxation (rabbit aortic rings): attenuate ACh-induced vasorelaxation | inhibition of EDRF/NO in vascular preparation (rabbit aortic rings; rabbit aorta, NMMA 100 μM): arginine reversible inhibitor of EDRF/NO | effect on ACh-induced vasorelaxation [3]: attenuate ACh-induced vasorelaxation | inhibition of EDRF/NO in vascular preparation ([3]; human): arginine reversible inhibitor of EDRF/NO | effect on coronary flow (vasodilation) [4]: attenuated | effect on EDRF/NO (nitrite) release [4]: inhibition | effect on EDRF/NO (nitrite) release ([4]; listed as L-NMA): inhibits EDRF/NO release | anti-hypotensive effect in endotoxemic dog (endotoxin-treated dogs; 20 mg/kg L-NMA): rapid and strong anti-hypotensive effect; also recorded: restores blood pressure to normal or near normal values | increase in SAP by L-NMA (endotoxin-treated dogs; FIG. 24, 20 mg/kg, within 10 min): 73 mm Hg | duration of maintained blood pressure, first dose (endotoxin-treated dogs; FIG. 24, first dose of L-NMA): 48 min | SAP maintained after second dose (endotoxin-treated dogs; FIG. 24, for 2 hrs): greater than 100 mm Hg | time to normalization / reversal of hypotension (endotoxin-treated dogs; L-NMA 20 mg/kg i.v.): ≤ 1.5 min | increase in SVR by L-NMA (endotoxin-treated dogs; L-NMA, endotoxin-treated): 2060±338 dynes-sec/cm^5 | Cardiac Output (endotoxin-treated dogs): 2.03 ± 0.32 L/min | Heart Rate (endotoxin-treated dogs): 123.3 ± 4.8 beats/min | Systemic Arterial Pressure (endotoxin-treated dogs): 107 ± 9.6 mmHg | Systemic Vascular Resistance (endotoxin-treated dogs): 4462 ± 552 dynes-sec/cm^5 | duration of normal blood pressure with additional dose (endotoxin-treated dogs; additional dose of L-NMA 20 mg/kg): at least 2 hours | increase in SAP by L-NMA (endotoxin-treated dogs; endotoxemic dogs, L-NMA 20 mg/kg, n=4): 47.8±6.8 mmHg | HR and CO after L-NMA (endotoxin-treated dogs; endotoxin-treated): unchanged | pressor effect of doses greater than 20 mg/kg (endotoxin-treated dogs; limited dose response studies, versus 20 mg/kg): do not have a significantly greater pressor effect | duration of normal blood pressure after single dose (endotoxin-treated dogs; single i.v. dose L-NMA 20 mg/kg): 30 to 60 min | HR, CO or SVR after L-NMA ([5]; L-NMA 20 mg/kg): without significant alteration in HR, CO, or SVR | Cardiac Output [5]: 3.85 ± 0.8 L/min | Heart Rate [5]: 191.7 ± 35.0 beats/min | Systemic Arterial Pressure [5]: 81.8 ± 3.5 mmHg | Systemic Vascular Resistance [5]: 1851 ± 399 dynes-sec/cm^5 | increase in blood pressure (SAP) by L-NMA ([5]; nitroglycerin infusion, L-NMA 20 mg/kg, n=3): 17.1±5.0 mmHg | blood pressure with readministration of NMMA (endotoxemic dogs; FIG. 24): maintained | increase in blood pressure by NMMA (endotoxemic dogs; NMMA 5 mg/kg after ET 1 μg/kg): 33±2.5 mmHg | time to blood pressure increase (endotoxemic dogs; NMMA 5 mg/kg after ET 1 μg/kg): ≤ 1.5 min | increase in blood pressure by NMMA (endotoxemic dogs; lethal shock, 100 μg/ml endotoxin, NMMA 20 mg/kg): 65 mm | inhibition of vascular EDRF/NO synthesis ([6]; induced by acetylcholine and histamine): inhibit vascular EDRF/NO synthesis

From patent publication US5770623A, “Argine antagonists for inhibition of systemic hypotension associated with nitric oxide production or endothelial derived relaxing factor” (Board of Regents, The University of Texas System, priority 1995, dated 1998)
